Results on 44 molecules are retold here after patent US12637468B2, “Substituted [1,2,4]triazolo[4,3-b]pyridazines as GABAA receptor modulators” (SHANGHAI SIMR BIOTECHNOLOGY CO., LTD., priority 2019, dated 2026).

In this test the target is T1, α5-GABAA receptor (Homo sapiens, UniProt P18507+P31644).
T1 construct: expressed in transfected cells; host or cells: HEK293, monoclonal stably transfected line
T1 sequence (P31644 32-462): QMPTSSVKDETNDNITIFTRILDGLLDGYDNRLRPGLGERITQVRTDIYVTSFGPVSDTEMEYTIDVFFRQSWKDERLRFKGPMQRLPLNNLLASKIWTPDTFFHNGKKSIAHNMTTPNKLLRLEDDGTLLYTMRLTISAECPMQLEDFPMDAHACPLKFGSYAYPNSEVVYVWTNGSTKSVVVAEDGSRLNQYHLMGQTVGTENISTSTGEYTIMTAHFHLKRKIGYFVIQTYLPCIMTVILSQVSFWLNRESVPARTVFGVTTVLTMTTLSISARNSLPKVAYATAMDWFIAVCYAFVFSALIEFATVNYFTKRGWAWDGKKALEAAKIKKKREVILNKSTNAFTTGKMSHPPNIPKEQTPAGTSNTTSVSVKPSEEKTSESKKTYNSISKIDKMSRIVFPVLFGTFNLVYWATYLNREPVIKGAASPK
T1 sequence (P28472 26-473 partner): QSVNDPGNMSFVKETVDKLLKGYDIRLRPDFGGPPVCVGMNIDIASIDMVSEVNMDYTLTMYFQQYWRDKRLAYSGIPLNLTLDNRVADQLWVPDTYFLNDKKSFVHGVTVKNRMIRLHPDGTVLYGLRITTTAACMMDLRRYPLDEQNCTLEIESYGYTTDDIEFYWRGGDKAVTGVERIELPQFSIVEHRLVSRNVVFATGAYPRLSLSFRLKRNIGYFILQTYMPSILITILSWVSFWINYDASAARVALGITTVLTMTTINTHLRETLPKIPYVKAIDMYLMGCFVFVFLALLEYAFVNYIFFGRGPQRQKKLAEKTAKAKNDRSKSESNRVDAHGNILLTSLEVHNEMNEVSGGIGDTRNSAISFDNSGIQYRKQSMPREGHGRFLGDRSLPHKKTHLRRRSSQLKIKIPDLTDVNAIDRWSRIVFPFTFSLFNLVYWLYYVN
T1 sequence (P18507 40-467 isoform P18507-1 limits assumed): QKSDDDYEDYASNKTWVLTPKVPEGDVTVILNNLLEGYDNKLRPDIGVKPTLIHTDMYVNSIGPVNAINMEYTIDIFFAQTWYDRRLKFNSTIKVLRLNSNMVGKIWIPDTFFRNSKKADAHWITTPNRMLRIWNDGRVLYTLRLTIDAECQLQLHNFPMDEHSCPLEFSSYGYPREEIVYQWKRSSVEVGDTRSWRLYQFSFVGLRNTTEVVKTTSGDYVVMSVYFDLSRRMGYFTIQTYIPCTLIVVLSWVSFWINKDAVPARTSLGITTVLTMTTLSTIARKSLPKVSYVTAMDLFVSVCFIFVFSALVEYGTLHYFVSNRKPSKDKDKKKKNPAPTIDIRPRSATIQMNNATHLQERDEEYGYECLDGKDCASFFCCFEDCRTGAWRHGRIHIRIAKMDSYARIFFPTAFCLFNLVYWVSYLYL
The test can be described thus: Cell-level screening: whole cell patch clamp, inverse agonist efficacy on α5-GABAA receptor expressed in HEK293. Particulars: drug 100 nM, GABA 0.05 μM, HEK293 expressing α5, β3 and γ2 subunits, clamped at −60 mV; read-out: Compound inverse agonist efficacy %. It is filed as cell-based. As to the method:
The inventors used electrophysiological methods to determine the inverse agonist efficacy of the drugs to be tested on the α5-GABAA receptor. The detailed methods are as follows:
Different subunits of GABAA receptors were expressed in human […] cell line 293 (HEK293) cell line. The cells were cultured in a culture medium and used as a cell model for screening pain inhibiting drugs. The α, β and γ subunits are necessary to form complete functional GABAA receptors. In this embodiment, the inventors had established the following cell model: α5 subunit (see GenBank Accession No. NM_000810.3 for protein sequences), β3 subunit (see GenBank Accession No. NM_000814.5 for protein sequences) and γ2 subunit (see GenBank Accession No. NM_000816.3 for protein sequences) were expressed in HEK293 cell line at the same time, followed by screening the monoclonal cell line. This cell line contained α5-GABAA receptor and had complete GABAA receptor function.
The monoclonal stably transfected HEK-293 cells expressing α5-GABAA receptor were cultured in 10 cm culture dishes and passaged when the cells grew to 80%-90%. During passaging, the culture medium was aspirated first, then 3 mL of DPBS phosphate buffer salt (Gibco™) was added to the culture dishes, and the culture dishes were shaken slightly, and DPBS was aspirated. 1 mL of trypsin (TrypLE Express, Gibco™) was added thereto, and the cells were digested at 37° C. for 1-2 minutes. Then 3 mL of complete medium (DMEM+10% FBS (Gibco™)) was added and the cells at the bottom of the culture dishes were dispersed. The cell suspension were transferred to a 15 mL centrifugal tube (Corning) and then centrifuged at 200 g for 3 minutes. The supernatant was discarded, 4 mL of complete medium was added, and the cells were gently blown and resuspended for use. If cell passaging was performed, the cell suspension was diluted at a ratio of 1:5 or 1:10. If cells for electrophysiology use were prepared, the cell suspension was diluted in a ratio of 1:12, then added into a 24-well dish (Corning™) in which glass slides were placed and pretreated with Poly-D-Lysine, and the cells were tested after being attached to the walls. The culture time of cells for electrophysiology use was no more than 48 hours.
Drug concentration setting: the final drug concentration used in drug screening was 100 nM, and the GABA concentration range was 0.05 μM. The final drug concentrations used in the dose-inversal agonistic efficiency (%) test were 0.3 nM, 3 nM, 10 nM, 30 nM, 100 nM and 300 nM. The whole cell patch clamp technique was used in electrophysiological experiments, which could refer to the literature (I. Lecker, Y. Yin, D. S. Wang and B. A. Orser, (2013) Potentiation of GABAA receptor activity by volatile anaesthetics is reduced by α5-GABAA receptor-preferring inverse agonists, British Journal of Anaesthesia 110 (S1): i73-i81). The components of extracellular solution (ECS) for electrophysiology use were as follows: 150 mM NaCl, 5 mM KCl, 2.5 mM CaCl2), 1 mM MgCl2, 10 mM HEPES and 10 mM glucose (pH 7.4); electrode internal solutions for electrophysiology use were as follows: 140 mM CsCl, 11 mM EGTA, 10 mM HEPES, 2 mM CaCl2), 1 mM MgCl2, 4 mM MgATP, 2 mM TEA (pH 7.3). The signal acquisition used an EPC-10 amplifier and the PatchMaster software (HEKA). The recording electrode was drawn using borosilicate glass, and the electrode resistance was 4 to 6 MΩ. The ALA-VC3-8PP™ system was used for extracellular administration. Separate cells that grew independently was selected for recording. During recording, the cell membrane potential was clamped at −60 mV. During experiment, an extracellular solution was applied to the cells for about 20 seconds. When the baseline reached to a stable state, the extracellular solution was switched to GABA. Then the current induced by GABA could be detected. […]
A general note: The patch-clamp technique gives a direct electrical read-out from membranes.
With `COc1cc2nnc(-c3cc(C)on3)n2nc1OCc1ccc(C2CCCN2)cn1` (centres unmarked) [Embodiment 69, 3-(7-Methoxy-6-((5-(pyrrolidin-2-yl)pyridin-2-yl)methoxy)-[1,2,4]triazolo[4,3-b]pyridazin-3-yl)-5-methylisoxazole], the inhibition at 0.1 µM stood at 50%.
In the case of `COc1cc2nnc(-c3cc(C)on3)n2nc1OCc1cccc(C2CC2)n1` [Embodiment 57] it was 17.6%.
Consider `COc1cc2nnc(-c3cc(C)on3)n2nc1OCc1ccc(OC(F)(F)F)cn1` [Embodiment 61], for which the inhibition at 0.1 µM came out at 45.8%.
The same measure for `COc1cc2nnc(-c3cc(C)on3)n2nc1OCc1ccc2c(n1)CCN(C(=O)C1CC1)C2` [Embodiment 81]: 45.9%; for `COc1cc2nnc(-c3cc(C)on3)n2nc1OCc1ccc(C2CCC2)cn1` [Embodiment 56]: 21.6%.
`COc1cc2nnc(-c3cc(C)on3)n2nc1OCc1ccc2c(n1)CCN(C1CC(F)(F)C1)C2` [Embodiment 184]: the inhibition at 0.1 µM was 33.9%.
The same measure for `COc1cc2nnc(-c3cc(C)on3)n2nc1OCc1ccc2c(n1)CCN(C(=O)NC1CC(F)(F)C1)C2` [Embodiment 201, N-(3,3-Difluorocyclobutyl)-2-(((7-methoxy-3-(5-methylisoxazol-3-yl)-[1,2,4]triazolo[4,3-b]pyridazin-6-yl)oxy)methyl)-7,8-dihydro-1,6-naphthyridine-6(5H)-carboxamide]: 48.3%.
The same measure for `COc1cc2nnc(-c3cc(C)on3)n2nc1OCc1cccc(C)n1` [Embodiment 16]: 31.1%; for `COc1cc2nnc(-c3cc(C)on3)n2nc1OCc1ccc2c(n1)CCN(C(=O)NCC(F)F)C2` [Embodiment 207]: 49.3%.
In the case of `COc1cc2nnc(-c3cc(C)on3)n2nc1OCc1cccc(C2(F)CCNC2)n1` (centres unmarked) [Embodiment 125] it was 41.8%.
`COc1cc2nnc(-c3cc(C)on3)n2nc1OCc1ccc2nn(Cc3cc(C)on3)cc2n1` [Embodiment 225]: the inhibition at 0.1 µM was 74.4%.
In the case of `COc1cc2nnc(-c3cc(C)on3)n2nc1OCc1ccc(OCC2CCCO2)cn1` (centres unmarked) [Embodiment 106] it was 60.4%; in that of `COc1cc2nnc(-c3cc(C)on3)n2nc1OCc1ccc2c(n1)CCN(C1CC(C#N)C1)C2` (centres unmarked) [Embodiment 195], 45.8%; in that of `CCOc1cccc(COc2nn3c(-c4cc(C)on4)nnc3cc2OC)n1` [Embodiment 22], 22.1%.
The same measure for `COc1cc2nnc(-c3cc(C)on3)n2nc1OCc1ccc2c(n1)CCN(CC1CC1)C2` [Embodiment 82]: 47.9%; for `COc1cc2nnc(-c3cc(C)on3)n2nc1OCc1ccc2c(n1)CNCC2` [Embodiment 120]: 42.6%; for `COc1cc2nnc(-c3cc(C)on3)n2nc1OCc1ccnc2ccnn12` [Embodiment 65]: 55.4%.
For `COc1cc2nnc(-c3cc(C)on3)n2nc1OCc1ccc2c(n1)CCN(CC13CC(C#N)(C1)C3)C2` [Embodiment 194], the inhibition at 0.1 µM turned out to be 41.5%.
The same measure for `COc1cc2nnc(-c3cc(C)on3)n2nc1OCc1ccc(F)cn1` [Embodiment 58]: 38.5%; for `COc1cc2nnc(-c3cc(C)on3)n2nc1OCc1ccc2c(n1)CCN(c1ccccc1)C2` [Embodiment 87, 3-(7-Methoxy-6-((6-phenyl-5,6,7,8-tetrahydro-1,6-naphthalen-2-yl)methoxy)-[1,2,4]triazolo[4,3-b]pyridazin-3-yl)-5-methylisoxazole]: 39.7%.
The same measure for `COc1cc2nnc(-c3cc(C)on3)n2nc1OCc1ccc2c(n1)CCN(CCC#N)C2=O` [Embodiment 91]: 47.8%; for `CCn1ccc2nc(COc3nn4c(-c5cc(C)on5)nnc4cc3OC)ccc2c1=O` [Embodiment 148]: 69.6%.
In the case of `COc1cc2nnc(-c3cc(C)on3)n2nc1OCc1ccc2c(cnn2C(C)C)n1` [Embodiment 236] it was 54.8%; in that of `COc1cc2nnc(-c3cc(C)on3)n2nc1OCc1ccc2c(ncn2C)n1` [Embodiment 118], 63.7%; in that of `COCCCOc1nnc(COc2nn3c(-c4cc(C)on4)nnc3cc2OC)cc1C` [Embodiment 155], 50.1%.
Turning to `COc1cc2nnc(-c3cc(C)on3)n2nc1OCc1cccc(N(C)C)n1` [Embodiment 3], the inhibition at 0.1 µM was 37.1%.
The same measure for `COc1cc2nnc(-c3cc(C)on3)n2nc1OCc1ccc(C2CCNC2)cn1` (centres unmarked) [Embodiment 96]: 38.8%; for `COc1cc2nnc(-c3cc(C)on3)n2nc1OCc1ccc2c(n1)CCN(C)C2=O` [Embodiment 142]: 50.2%; for `COCCn1ccc2nc(COc3nn4c(-c5cc(C)on5)nnc4cc3OC)ccc2c1=O` [Embodiment 147]: 39.8%.
The same measure for `COc1cc2nnc(-c3cc(C)on3)n2nc1OCc1cc(OC2COC2)ccn1` [Embodiment 172]: 47.6%; for `COc1cc2nnc(-c3cc(C)on3)n2nc1OCc1ccc2c(ccn2C)n1` [Embodiment 97]: 32.6%; for `COc1cc2nnc(-c3cc(C)on3)n2nc1OCc1ccc(C(=O)NCC(F)(F)F)cn1` [Embodiment 11, 6-(((7-Methoxy-3-(5-methylisoxazol-3-yl)-[1,2,4]triazolo[4,3-b]pyridazin-6-yl)oxy)methyl)-N-(2,2,2-trifluoroethyl)nicotinamide]: 35.4%.
In the case of `COc1cc2nnc(-c3cc(C)on3)n2nc1OCc1ccc2nnc(C3CCOCC3)n2n1` [Embodiment 215] it was 36.8%; in that of `COc1cc2nnc(-c3cc(C)on3)n2nc1OCc1ccc2nc(C3CCOCC3)cn2n1` [Embodiment 212], 72.6%.
`COc1cc2nnc(-c3cc(C)on3)n2nc1OCc1ccc(OCCCC#N)nn1` [Embodiment 27]: the inhibition at 0.1 µM is 42%.
Regarding `COc1cc2nnc(-c3cc(C)on3)n2nc1OCc1ccc(C2(F)CCCNC2)cn1` (centres unmarked) [Embodiment 95], the inhibition at 0.1 µM amounted to 48.1%.
The same measure for `COc1cc2nnc(-c3cc(C)on3)n2nc1OCc1cnc(OC2CCOCC2)cn1` [Embodiment 177]: 56.5%; for `COc1cc2nnc(-c3cc(C)on3)n2nc1OCc1ccc2ccccc2n1` [Embodiment 138]: 42.9%.
Turning to `CCc1cn2nc(COc3nn4c(-c5cc(C)on5)nnc4cc3OC)ccc2n1` [Embodiment 176], the inhibition at 0.1 µM turned out to be 50.1%.
In the case of `COc1cc2nnc(-c3cc(C)on3)n2nc1OCc1ccc2cnn(C)c2n1` [Embodiment 220] it was 51.8%.
The same measure for `COc1cc2nnc(-c3cc(C)on3)n2nc1OCc1ccc2c(cnn2CCc2ccccc2)n1` [Embodiment 229, 3-(7-Methoxy-6-(((1-phenethyl-1H-pyrazolo[4,3-b]pyridin-5-yl]methoxy])-[1,2,4]triazolo[4,3-b]pyridazin-3-yl)-5-methylisoxazole]: 30.8%.
The same measure for `COc1cc2nnc(-c3cc(C)on3)n2nc1OCc1ccc(OCCN2CCC2)cn1` [Embodiment 133]: 36.9%; for `COc1ccc(C(F)(F)F)nc1COc1nn2c(-c3cc(C)on3)nnc2cc1OC` [Embodiment 62]: 35.7%; for `COc1cc2nnc(-c3cc(C)on3)n2nc1OCc1ccc2c(n1)CCN([C@H]1CCOC1)C2` (single isomer, unassigned) [Embodiment 181]: 59%.
